8 molecules from PubChem BioAssay (NCI) can be followed below.

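These data come from cells grown in 96-well plates and exposed to compound for 48 hours at five concentrations. GI50 is the concentration that inhibits growth by half. The concentration for full growth arrest is given as TGI.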

Some test systems named below: COLO 205 colon; HS 578T breast; SK-OV-3 ovarian; SW-620 colon; IGROV1 ovarian; OVCAR-8 ovarian; OVCAR-5 ovarian; MDA-MB-231 breast; U251 CNS; HCT-116 colon.
What all share (experiment): NCI anticancer screen, dose series, 48 h

Take `Cc1nn(-c2ccccc2)c2nc(C)n(-c3ccc(Br)cc3)c(=O)c12`: the GI50 in the assay on COLO 205 colon is 0.549 µM; in the assay with HS 578T breast, 0.371 µM; with SK-OV-3 ovarian, 1.28 µM; with SW-620 colon, 0.353 µM; in the assay on IGROV1 ovarian, 0.584 µM; in the assay on OVCAR-8 ovarian, 0.965 µM. The GI50 with OVCAR-5 ovarian is 1.99 µM; in the assay with MDA-MB-231 breast it was 1.45 µM; with U251 CNS, 0.479 µM; in the assay on HCT-116 colon it was 0.425 µM. Moreover, the TGI is 18.4 µM with COLO 205 colon; greater than 100 µM with HS 578T breast; greater than 100 µM in the assay with SK-OV-3 ovarian; greater than 100 µM with SW-620 colon; greater than 100 µM with IGROV1 ovarian; greater than 100 µM with OVCAR-8 ovarian. The TGI in the assay on OVCAR-5 ovarian was greater than 100 µM; in the assay with MDA-MB-231 breast it was greater than 100 µM; in the assay on U251 CNS, greater than 100 µM; in the assay on HCT-116 colon it was greater than 65.4 µM.
In the case of `O=C(Nc1ccc(Cl)cc1)N1CCN(c2ccc3nncn3n2)CC1`, the GI50 in the assay with COLO 205 colon was 51.6 µM; in the assay with HS 578T breast, greater than 100 µM; in the assay on SK-OV-3 ovarian it was greater than 100 µM; in the assay with SW-620 colon it was 60.8 µM; in the assay with IGROV1 ovarian, greater than 100 µM; with OVCAR-8 ovarian it was 69.7 µM. The GI50 in the assay with OVCAR-5 ovarian was greater than 100 µM; in the assay with MDA-MB-231 breast it was 63.2 µM; with U251 CNS, greater than 100 µM; with HCT-116 colon it was 64 µM. The TGI with COLO 205 colon, in the assay with HS 578T breast, in the assay with SK-OV-3 ovarian, with SW-620 colon, in the assay with IGROV1 ovarian and in the assay with OVCAR-8 ovarian was greater than 100 µM throughout. Further, the TGI with OVCAR-5 ovarian, in the assay with MDA-MB-231 breast, in the assay with U251 CNS and with HCT-116 colon was greater than 100 µM throughout.
For `CCCCNCCCCCNc1cc(OC)cc2cccnc12`, the GI50 in the assay with COLO 205 colon is 17.2 µM; with HS 578T breast it was 21.7 µM; in the assay with SK-OV-3 ovarian, 18.4 µM; in the assay with SW-620 colon it was 19.2 µM; in the assay on IGROV1 ovarian, 14.6 µM; with OVCAR-8 ovarian it was 17.8 µM. The GI50 was 15.1 µM with OVCAR-5 ovarian, 23.2 µM in the assay with MDA-MB-231 breast, 42.6 µM in the assay on U251 CNS and 13.6 µM with HCT-116 colon. For the same molecule, the TGI was found to be 33.8 µM in the assay with COLO 205 colon; 47.9 µM in the assay with HS 578T breast; 35.9 µM in the assay on SK-OV-3 ovarian; 39.4 µM in the assay with SW-620 colon; 29.1 µM in the assay on IGROV1 ovarian; 37.6 µM in the assay on OVCAR-8 ovarian. In addition, the TGI in the assay on OVCAR-5 ovarian was 30.9 µM; in the assay with MDA-MB-231 breast, 50.8 µM; in the assay on U251 CNS, greater than 100 µM; with HCT-116 colon, 26.6 µM.
As for `O=c1[nH]c(=O)n(C2OC(CO)C(O)C2O)cc1F` (stereo unspecified), the GI50 in the assay with COLO 205 colon was 0.0447 µM; in the assay on HS 578T breast it was 0.031 µM; in the assay on SW-620 colon, 0.0314 µM; in the assay on OVCAR-5 ovarian it was 0.0442 µM; in the assay on U251 CNS it was 0.0669 µM; in the assay with HCT-116 colon, 0.00778 µM. Besides, the TGI in the assay on COLO 205 colon was 18.7 µM; with HS 578T breast, greater than 100 µM; in the assay with SK-OV-3 ovarian, greater than 97.4 µM; in the assay with SW-620 colon it was greater than 100 µM; in the assay on IGROV1 ovarian, 3.12 µM; in the assay on OVCAR-8 ovarian, greater than 100 µM. The TGI is 26 µM in the assay on OVCAR-5 ovarian, greater than 100 µM with MDA-MB-231 breast, greater than 48.7 µM with U251 CNS and 7.27 µM in the assay on HCT-116 colon.
In the case of `CCC(C)C(=O)OC1CCC=C2C=CC(C)C(CCC3CC(O)CC(=O)O3)C21` (stereo unspecified), the TGI with COLO 205 colon was 32.4 µM; in the assay on HS 578T breast it was 17.4 µM; in the assay with SK-OV-3 ovarian, greater than 100 µM; in the assay with SW-620 colon, greater than 100 µM; with IGROV1 ovarian, 44.1 µM; with OVCAR-8 ovarian, greater than 100 µM. Moreover, the TGI in the assay with OVCAR-5 ovarian is greater than 100 µM; in the assay with MDA-MB-231 breast, greater than 64.7 µM; in the assay with U251 CNS, greater than 100 µM; in the assay with HCT-116 colon, greater than 100 µM.
Regarding `CCS(=O)(=O)N1CCN(c2ccc(Nc3ncc(C(N)=O)c(NC4CC4)n3)cc2)CC1`, the GI50 in the assay on COLO 205 colon was 2.61 µM; in the assay with HS 578T breast, 10.9 µM; with SK-OV-3 ovarian, 7.93 µM; in the assay on SW-620 colon, 20.6 µM; in the assay on IGROV1 ovarian, 5.29 µM; in the assay with OVCAR-8 ovarian, 5.62 µM. Further, the GI50 in the assay on OVCAR-5 ovarian was 36.8 µM; with MDA-MB-231 breast, 22.8 µM; with U251 CNS, 54.1 µM; in the assay on HCT-116 colon, 5.84 µM. The TGI with COLO 205 colon is 21.2 µM; in the assay with HS 578T breast, 57.3 µM; with SK-OV-3 ovarian, 26.3 µM; in the assay on SW-620 colon, 61.9 µM; in the assay on IGROV1 ovarian, greater than 100 µM; with OVCAR-8 ovarian, 88.1 µM. Further, the TGI in the assay with OVCAR-5 ovarian, in the assay on MDA-MB-231 breast, in the assay with U251 CNS and in the assay on HCT-116 colon was greater than 100 µM in each case.
As for `O=C(CCl)Nc1ccc(Cc2ccc(NC(=O)CCl)cc2)cc1`, the GI50 was 1.97 µM in the assay on COLO 205 colon; 5.37 µM in the assay with HS 578T breast; 18 µM with SK-OV-3 ovarian; 1.92 µM in the assay on SW-620 colon; 1.43 µM in the assay with IGROV1 ovarian; 3.17 µM in the assay with OVCAR-8 ovarian. For the same molecule, the GI50 in the assay with OVCAR-5 ovarian is 2.27 µM; in the assay with MDA-MB-231 breast, 1.54 µM; in the assay on U251 CNS, 1.4 µM; in the assay with HCT-116 colon, 0.44 µM. Besides, the TGI is 4.12 µM in the assay on COLO 205 colon; greater than 100 µM in the assay on HS 578T breast; greater than 100 µM in the assay with SK-OV-3 ovarian; 5.25 µM in the assay with SW-620 colon; 4.06 µM in the assay with IGROV1 ovarian; greater than 100 µM in the assay on OVCAR-8 ovarian. The TGI turned out to be 5.52 µM with OVCAR-5 ovarian, 5.06 µM in the assay with MDA-MB-231 breast, 2.98 µM in the assay on U251 CNS and 1.03 µM in the assay on HCT-116 colon.
As to `CCN(CC)CCCC(C)Nc1ccnc(/C=C/c2ccc(Cl)cc2)c1` (stereo unspecified), the TGI in the assay on COLO 205 colon came out at 3.01 µM; in the assay with HS 578T breast, 5.81 µM; with SK-OV-3 ovarian it was 10.7 µM; in the assay on SW-620 colon it was 3.91 µM; in the assay on IGROV1 ovarian, 9.47 µM; in the assay with OVCAR-8 ovarian it was 7.57 µM. In addition, the TGI with OVCAR-5 ovarian was found to be 8.04 µM; with MDA-MB-231 breast, 3.19 µM; with U251 CNS it was 3.12 µM; in the assay with HCT-116 colon it was 3.22 µM.
